Laboratory results as given in patent US11311567B2, “Cytochrome P450 enzyme complexes and methods of treatment using the same” (Innovation Hammer LLC, priority 2004, dated 2022).

Key:
[1] = basis for selecting preferred oxidants; cited from earlier work
human CPR (hCPR) = experiment: NADPH-dependent reduction of cytochrome C by CPR in microsomes after treatment with substrates; format: biochemical; conditions: microsomes quantified against CPR and Cc; Cc oxidase activity inhibited by potassium cyanide
Description: The following example illustrates an application of human P450 compositions according to the present invention. Procedures followed previously described methods, e.g., U.S. Pat. No. 6,020,288; M. Markwell, et al., Methods of Enzymology 72:296-303 (1981); C. A. Mihaliak, et al., Methods in plant biochemistry 19:261-279 (1993); R. Donaldson, et al., Arch. Biochem. Biophys. 152:199-215 (1972); and M. Persans, et al., Plant Physiol. 109:1483-1490 (1995)).
Methods. CPR substrates have been assayed on various tissues (e.g., U.S. Pat. No. 6,020,288); therefore, response to human CPR (hCPR) was examined under controlled conditions on live index organisms. The direct effects of substrates on hCPR were measured by preparation of microsomes for quantification against CPR and Cc. Controls included equal concentrations of each individual treatment or substrate in surfactant and water. Untreated controls were maintained under identical conditions of culture. Oxidase activity of Cc was inhibited by potassium cyanide. The reaction was initiated by addition of Cc wherein NADPH-dependent reduction of Cc was monitored for increases in absorbance.

Compound	one-electron reduction potential (E0) [1]	induction relative to components tested (human CPR (hCPR))
Cc1cc2nc3c(=O)[nH]c(=O)nc-3n(C[C@H](O)[C@H](O)[C@H](O)COP(=O)(O)O)c2cc1C [FMN, flavin mononucleotide]	−313 mV	over 4.5 times
O=C(O)CO [glycolate]	−290 mV	
nitrobenzoate	−396 mV	
